Test results: patent US20090270401A1, “USE OF A DIHYDROIMIDAZOPYRAZOINE DERIVATIVE FOR TREATING OR PREVENTING PAIN” (Societe de Conseils de Recherches et D'Applications …, priority 2004, published 2009)

Tests used:
Assay type in all cases: in vivo
[1] = tested on: carrageenin-induced inflammatory hyperalgesia in a rat's paw; assay: Model of carrageenin-induced inflammatory hyperalgesia (Randall-Selitto test)
Protocol: The activity of compound (I) or its salt according to the invention has been evaluated in vivo on a model of carrageenin-induced inflammatory hyperalgesia in a rat's paw.
Male Sprague Dawley (Charles River) rats weighing approximately 200 g are housed for 5 to 8 days under animal room conditions and fasted on grids for 18 hours before and during the experiment. 4 groups are constituted by at least 6 animals. The products are administered by intravenous route (i.v., 1 ml/kg) 2 hours 30 minutes after the injection of carrageenin. Carrageenin at a concentration of 2 mg/0.1 ml was injected by sub-plantar route in the right rear paw of the rats (0.1 ml was injected per animal). The pain threshold (or nociceptive threshold) was evaluated by measuring the withdrawal of the rat's paw caused by a mechanical stimulus of increasing pressure (initial pressure 210 g/mm^2) applied using an analgesy meter (Randall-Selitto test). The measurements were taken just before the injection of carrageenin (t=−2 hours 30 minutes) and then at time 0.5 hours, 2 hours 30 minutes and 4 hours after injection of the products to be tested, which was carried out at t=0.
(§1) This effectiveness is statistically determined by a variance analysis test (one route) and/or a Dunnett's test (two routes).
The effective dose (ED50) was determined. By ED50, is meant the dose which reduces by half the pain induced in the model tested.

[2] = tested on: neuropathy induced by chronic constriction injury on the rat's paw; assay: Model of neuropathy induced by sciatic nerve lesion (chronic constriction injury), Randall-Selitto test
Protocol: The activity of compound (I) or its salt according to the invention was evaluated in vivo on a model of neuropathy induced by chronic constriction injury on the rat's paw.
Male Sprague Dawley (Charles River) rats weighing approximately 200 g are housed for 6 days under animal room conditions. Before the start of the experiment (day zero) the pain threshold (or nociceptive threshold) was evaluated by measuring the withdrawal of the rat's paw caused by a mechanical stimulus (initial pressure 210 g/mm^2) applied using an analgesy meter (Randall-Selitto test). This threshold is the pain base threshold. Then, also on day zero, the rats are rendered neuropathic by chronic constriction injury according to the Bennett and Xies (1988) method: 4 ligatures spaced at approximately 2 mm (monocryl suture; 5.0) are carried out on the sciatic nerve of the rat's right paw, above the trifurcation. This operation is carried out under general anaesthetic using isoflurane. […] On day 14 after the operation, the pain threshold was re-evaluated. […] The readings are taken at the following times: 0.5 hours 2.5 hours and 4 hours after injection of compound (I). […]
as §1
The effective dose (ED50) was determined. […]

[3] = tested on: neuropathy induced by administration of an anti-cancer agent (paclitaxel (taxol)), on a rat's paw; assay: Model of neuropathy induced by administration of an anti-cancer agent (paclitaxel), Randall-Selitto test; conditions: significantly increased
Protocol: The activity of compound (I) or its salt according to the invention was evaluated in vivo on a model of neuropathy induced by administration of an anti-cancer agent (paclitaxel (taxol)), on a rat's paw.
Male Sprague Dawley (Charles River) rats weighing approximately 200 g are housed for 6 days under animal room conditions. 3 groups are constituted by at least 10 animals.
The neuropathy is induced by intra-peritoneal injections (i.p.) of 2 mg/kg of paclitaxel (extract of Taxus Yannanensis) on days D0, D2, D4 and D7.
Before the first injection, the rats are numbered and weighed and nociception is evaluated after a mechanical stimulus of increasing pressure: induction of an initial pressure (210 g/m^2) on the rats' two rear paws carried out using an analgesy meter according to the Randall and Selitto method. These measurements allow the base values to be defined before development of the neuropathy (D0). […]
On the day of the experiment, the rats are weighed, nociception is measured and the animals which have not developed the neuropathy on this day (reduction of nociception in comparison with the readings on D0) are excluded from the study. The product being tested is administered and nociception is measured at different times after its administration.

[4] = Rattus norvegicus, iv, at time 0.5 hours, read-out: ED50 (dose which reduces by half the pain induced)

## N[C@@H](CSSC[C@H](N)C(=O)N1CCn2cc(-c3ccccc3)nc2[C@@H]1CC1CCCCC1)C(=O)N1CCn2cc(-c3ccccc3)nc2[C@@H]1CC1CCCCC1 [Compound (I), (1R)-1-[({(2R)-2-amino-3-[(8S)-8-(cyclohexylmethyl)-2-phenyl-5,6-dihydroimidazo[1,2-a]pyrazin-7(8H)-yl]-3-oxopropyl}dithio)methyl]-2-[(8S)-8-(cyclohexylmethyl)-2-phenyl-5,6-dihydroimidazo[1,2-a]pyrazin-7(8H)-yl]-2-oxoethylamine]
[1]; 1 mg/kg i.v., time 0.5 hours, control 240 g/mm^2, significantly increased
  pain threshold following a mechanical stimulus applied to the rats' paws: approximately 400 g/mm^2
[1]; [4]
  ED50: 0.42 mg/kg
[2]; 3 mg/kg i.v., time 0.5 hours, day 14 after operation, control 200 g/mm^2, significantly increased
  pain threshold following a mechanical stimulus applied to the rats' paws: approximately 320 g/mm^2
[2]; [4]
  ED50: 2.5 mg/kg
[3]; 3 mg/kg i.v., time 0.5 hours, paclitaxel alone 250 g/mm^2
  pain threshold following a mechanical stimulus applied on the rats' paws: approximately 370 g/mm^2
[3]; 100 mg/kg p.o., time 1 hour, paclitaxel alone 240 g/mm^2
  pain threshold following a mechanical stimulus applied to the rats' paws: approximately 400 g/mm^2
